What was measured:
TAFII-17 gene = TAFII-17 gene expression (RT-PCR, band density vs β-actin) in bone marrow mononuclear cells from patients with Paget's disease of bone; assay type: cell-based, human
Excerpt: (§1) Mononuclear cells were fractionated from bone marrow cells of healthy normal adults and patients with Paget's disease of bone according to a method of Kurihara et al. (Endocrinology, vol. 126, 2733–2741 (1990) and Journal of Clinical Investigation, vol. 105, 606–614 (2000)). Briefly, bone marrow cells were obtained from normal adults and patients with Paget's disease of bone, a mononuclear cell fraction was collected by Hypaque-Ficoll density gradient centrifugation, the cell fraction was washed with α-Minimal Essential Media (α-MEM, GIBCO BRL; Grand Island, N.Y.) 3 times, and the cells were dispersed in α-MEM containing 10% fetal bovine serum (GIBCO BRL; Grand Island, N.Y.). This mononuclear cell suspension was seeded on 100-mm tissue culture plates, the culture plates were kept for 90 minutes at 37° C. in a 5% CO2-air atmosphere, and the non-adherent cells were collected.
Mononuclear cells were prepared from bone marrow collected from patients with Paget's disease of bone according to a method described in Example 1. The collected mononuclear cells were dispersed in an α-MEM culture medium containing 20% horse serum in such a manner that the concentration became 3.3×10^5 cells/ml, seeded on 35-mm tissue culture plates at 3 ml/plate, and cultured for 12 hr at 37° C. in an incubator of 5% CO2-air in the presence of 10^−10 M 1α, 25-dihydroxyvitamin D3 and 10^−8 M Compound 11 (23S isomer) of the present invention singly, or in the presence of 10^−10 M 1α, 25-dihydroxyvitamin D3 and 10^−8 M Compound 11 (23S isomer) together. Subsequently, the cells were collected by centrifuge, RNA was extracted according to a routine procedure after the addition of 1 ml of an RNAzol B solution, and the resulting RNA was converted into cDNA by using a reverse transcriptase. The TAFII-17 gene was subjected to PCR reaction of 35 cycles each consisting of 1 min at 94° C., 1 min at 55° C. and 1 min at 72° C. using 5′-[…]-3′ (SEQ ID NO: 14) (sense) and 5′-[…]-3′(SEQ ID NO: 15) (antisense) as the primers. The PCR products were fractionated by electrophoresis using 2% agarose gel. As a house-keeping gene, β-actin was subjected to PCR reaction in the same manner, and the PCR products were fractionated by electrophoresis using 2% agarose gel. The densities of the bands of the TAFII-17 gene and the β-actin gene were determined by an image analyzer.

[1] = system: bone marrow cells from patients with Paget's disease of bone; assay: Osteoclast formation in bone marrow cultures from patients with Paget's disease of bone (23C6-positive cells with three or more nuclei); assay type: cell-based, human
Excerpt: as §1
Mononuclear cells were fractionated from bone marrow cells of patients with Paget's disease of bone as described in Example 1. The collected mononuclear cells were dispersed in an α-MEM culture medium containing 20% horse serum in such a manner that the concentration became 10^6 cells/ml, and seeded on a 96-well multiplate at 100 μl/well. The suppression effect of Compound 11 (23S isomer) on osteoclast formation in the bone marrow cells of patients with Paget's disease of bone induced by 1α,25-dihydroxyvitamin D3 was evaluated as follows. Into each well, 1α,25-dihydroxyvitamin D3 of various concentrations, Compound 11 (23S isomer) of various concentrations, or a combination of 10^−10 M 1α,25-dihydroxyvitamin D3 and Compound 11 (23S isomer) of various concentrations was added. The culture medium was replaced two times a week, and culture was continued for 3 weeks at 37° C. in an incubator of 5% CO2-air. After the culture, the culture product was subjected to 23C6 antibody (antibody; gift from Dr. Michael A. Horton, Rayne Institute, Bone and Mineral Center, London, United Kingdom) alkaline phosphatase dyeing (VECTASTAIN-ABC-AP kit; Vector Laboratories, Burlingame, Calif.), and the nuclei were dyed with methyl green. Cells that were positive to 23C6 antibody and had three or more nuclei were determined as osteoclast, and the number of all osteoclasts in each well was counted.

[2] = system: human 25-hydroxyvitamin D3-24-hydroxylase gene promoter; assay: 25-hydroxyvitamin D3-24-hydroxylase (24-OHase) luciferase reporter assay in NIH3T3 cells; assay type: cell-based, mouse
Excerpt: The promoter region of the human 25-hydroxyvitamin D3-24-hydroxylase gene(−186/−5), which contains two vitamin D responsive elements (VDRE) was cloned into a luciferase reporter vector pGL3-Basic Vector (Promega; Madison, Wis.). This plasmid construct was cotransfected with a β-galactosidase expression plasmid into pcDNA3.1-Neo-hTAFII-17-CDS (Example 2) or its empty vector-transfected mouse fibroblastic cell line NIH3T3 cells by lipofection (LipofectAMINE; GIBCO BRL; Grand Island, N.Y.). Sixteen hours after the transfection, vehicle (0.1% ethanol) or 1α,25-(OH)2D3 (10^−10 to 10^−8 M) was added. Forty-eight hours later, the cells were harvested in the cell lysate solution provided with the luciferase assay kit (Promega; Madison, Wis.). The luciferase activities of the cell lysates were measured with the luciferase assay kit according to the manufacturer's instructions and was standardized with the β-galactosidase activities of the same cell lysates determined with a β-galactosidase enzyme assay system (Promega; Madison, Wis.).

[3] = test substance alone at 10^−7 M, 3 weeks culture
[4] = test substance alone at 10^−8 M, 3 weeks culture
[5] = test substance alone at 10^−9 M, 3 weeks culture
[6] = test substance alone at 10^−10 M, 3 weeks culture
[7] = test substance alone at 10^−11 M, 3 weeks culture

C=C1C[C@H](C[C@H](C)[C@H]2CC[C@H]3/C(=C/C=C4/C[C@@H](O)C[C@H](O)C4=C)CCC[C@]23C)OC1=O (single isomer, unassigned) [Compound 11 (23S isomer)]
expression of TAFII-17 gene (in words) (TAFII-17 gene; 10^−8 M Compound 11 (23S isomer) added alone): remarkably suppressed
TAFII-17/β-actin (TAFII-17 gene; 10^−8 M Compound 11 (23S isomer) singly, 12 hr culture): 6.82 arbitrary units
TAFII-17/β-actin (TAFII-17 gene; 10^−8 M Compound 11 (23S isomer) together with 10^−10 M 1α,25-(OH)2D3, 12 hr culture): 46.89 arbitrary units
expression of TAFII-17 gene accelerated by 10^−10 M 1α,25-(OH)2D3 (in words) (TAFII-17 gene; addition of 10^−8 M Compound 11 (23S isomer)): strongly suppressed
osteoclast formation (average number of cells ± S.D.) ([1]; 10^−6 M compound 11 (23S isomer) + 10^−10 M 1α,25-dihydroxyvitamin D3, 3 weeks culture): 1 ± 1 cells
osteoclast formation (average number of cells ± S.D.) ([1]; 10^−7 M compound 11 (23S isomer) + 10^−10 M 1α,25-dihydroxyvitamin D3, 3 weeks culture): 14 ± 1 cells
osteoclast formation (average number of cells ± S.D.) ([1]; 10^−8 M compound 11 (23S isomer) + 10^−10 M 1α,25-dihydroxyvitamin D3, 3 weeks culture): 63 ± 5 cells
osteoclast formation (average number of cells ± S.D.) ([1]; 10^−9 M compound 11 (23S isomer) + 10^−10 M 1α,25-dihydroxyvitamin D3, 3 weeks culture): 125 ± 5 cells
osteoclast formation (average number of cells ± S.D.) ([1]; 10^−10 M compound 11 (23S isomer) + 10^−10 M 1α,25-dihydroxyvitamin D3, 3 weeks culture): 155 ± 6 cells
osteoclast formation (average number of cells ± S.D.) ([1]; 10^−11 M compound 11 (23S isomer) + 10^−10 M 1α,25-dihydroxyvitamin D3, 3 weeks culture): 170 ± 13 cells
osteoclast formation induced by 10^−10 M 1α,25-dihydroxyvitamin D3 (in words) ([1]; Compound 11 (23S isomer) added simultaneously, range of 10^−11 M to 10^−6 M): suppressed
osteoclast formation (in words) ([1]; Compound 11 (23S isomer) alone at 10^−6 M): did not caused any osteoclast formation
osteoclast formation (in words) ([1]; Compound 11 (23S isomer) by itself): rather inhibited the osteoclast formation
osteoclast formation (average number of cells ± S.D.) ([1]; test substance alone at 10^−6 M, 3 weeks culture): 1 ± 1 cells
osteoclast formation (average number of cells ± S.D.) [1, 3]: 8 ± 2 cells
osteoclast formation (average number of cells ± S.D.) [1, 4]: 9 ± 3 cells
osteoclast formation (average number of cells ± S.D.) [1, 5]: 16 ± 2 cells
osteoclast formation (average number of cells ± S.D.) [1, 6]: 20 ± 4 cells
osteoclast formation (average number of cells ± S.D.) [1, 7]: 29 ± 5 cells

C=C1/C(=C\C=C2/CCC[C@]3(C)[C@@H]([C@H](C)CCCC(C)(C)O)CC[C@@H]23)C[C@@H](O)C[C@@H]1O [1α,25-dihydroxyvitamin D3, reference compound]
expression of 25-hydroxyvitamin D3-24-hydroxylase gene (reporter, in words) ([2]; TAFII-17 gene-transfected NIH3T3 cells, 10^−8 M 1α,25-(OH)2D3, 48 h): extremely accelerated
expression of 25-hydroxyvitamin D3-24-hydroxylase gene (reporter, in words) ([2]; TAFII-17 gene-transfected NIH3T3 cells, 10^−9 M 1α,25-(OH)2D3, 48 h): accelerated
expression of 25-hydroxyvitamin D3-24-hydroxylase gene (reporter, in words) ([2]; empty vector-transfected NIH3T3 cells, 10^−8 M 1α,25-(OH)2D3, 48 h): detected
expression of 25-hydroxyvitamin D3-24-hydroxylase gene (reporter, in words) ([2]; empty vector-transfected NIH3T3 cells, 10^−9 M 1α,25-(OH)2D3, 48 h): hardly detected
TAFII-17/β-actin (TAFII-17 gene; 10^−10 M 1α,25-(OH)2D3 singly, 12 hr culture): 100 arbitrary units
concentration exhibiting almost the maximum activity on osteoclast formation ([1]; 1α,25-dihydroxyvitamin D3 alone): ~10^−9 M
osteoclast formation (in words) ([1]; 1α,25-dihydroxyvitamin D3 alone, range of 10^−11 M to 10^−7 M): stimulated osteoclast formation concentration-dependently
osteoclast formation (average number of cells ± S.D.) [1, 3]: 205 ± 6 cells
osteoclast formation (average number of cells ± S.D.) [1, 4]: 206 ± 16 cells
osteoclast formation (average number of cells ± S.D.) [1, 5]: 211 ± 25 cells
osteoclast formation (average number of cells ± S.D.) [1, 6]: 180 ± 15 cells
osteoclast formation (average number of cells ± S.D.) [1, 7]: 134 ± 14 cells

Reference: patent US7163933B2, “Treating agent for Paget's disease of bone” (Teijin Limited, priority 2002, dated 2007)
